# Where two headings read alike, the source gives them in different places.
# How the values were obtained:
# [1] = In vivo clearance experiment (biliary clearance); conditions: rat, bile collected 0-180 min
# Protocol: Bile flow is continuously collected from animal for 4 hours, including the 1 hour post-surgery recovery period. For short biliary excretion study, blood samples are taken at 0, 5 and 180 min and bile samples collection intervals are: 10 min before dosing and 0-180 min. All blood and bile samples are collected from 2 rats and are not pooled. Bile is kept at 4° C. during the collecting intervals and immediately frozen in dry ice after the collecting period is over.
# As biliary clearance is expected to be impaired in patients with liver diseases (Clarke J. D. et. al J. Pharm. Exp. Ther. 348:452-458; Ferslew B. C. et al. Clin. Pharm. & Ther. Vol 97(4) XX), a reduced biliary clearance results in a better predictibitlity of the pharmacokinetics and assessment of safety margins in this patient population.
# hepatocytes = experiment: Metabolic stability assay in hepatocyte suspension; assay type: in vitro ADME; conditions: 1 μM test compound
# Protocol: The metabolic degradation of the test compound is assayed in a hepatocyte suspension. Hepatocytes (typically cryopreserved) are incubated in an appropriate buffer system (e.g. Dulbecco's modified eagle medium plus 3.5 μg glucagon/500 mL, 2.5 mg insulin/500 mL and 3.75 mg/500 mL hydrocortison) containing 5% species serum. Following a (typically) 30 min preincubation in an incubator (37° C., 10% CO2) 5 μl of test compound solution (80 μM; from 2 mM in DMSO stock solution diluted 1:25 with medium) are added into 395 μl hepatocyte suspension (cell density in the range 0.25-5 Mio cells/mL, typically 1 Mio cells/mL; final concentration of test compound 1 μM, final DMSO concentration 0.05%). The cells are incubated for six hours (incubator, orbital shaker) and samples (25 μl) are taken at 0, 0.5, 1, 2, 4 and 6 hours. Samples are transferred into acetonitrile and pelleted by centrifugation (5 min). The supernatant is transferred to a new 96-deepwell plate, evaporated under nitrogen and resuspended. Decline of parent compound is analyzed by HPLC-MS/MS
# CLint is calculated as follows CL_INTRINSIC=Dose/AUC=(C0/CD)/(AUD+clast/k)×1000/60. C0: initial concentration in the incubation [μM], CD: cell density of vital cells [10e6 cells/mL], AUD: area under the data [μM×h], clast: concentration of last data point [μM], k: slope of the regression line for parent decline [h-1].
# The calculated in vitro hepatic intrinsic clearance can be scaled up to the intrinsic in vivo hepatic Clearance and used to predict hepatic in vivo blood clearance (CL) by the use of a liver model (well stirred model). CL_INTRINSIC_INVIVO [ml/min/kg]=(CL_INTRINSIC [μL/min/10e6 cells]×hepatocellularity [10e6 cells/g liver]×liver factor [g/kg bodyweight])/1000 CL [ml/min/kg]=CL_INTRINSIC_INVIVO [ml/min/kg]×hepatic blood flow [ml/min/kg]/(CL_INTRINSIC_INVIVO [ml/min/kg]+hepatic blood flow [ml/min/kg])
# AOC3 = AOC3 (Homo sapiens (Human), UniProt Q16853); experiment: MAO-Glo AOC3 assay (recombinant CHO cells overexpressing AOC3); assay type: biochemical
# Chain of AOC3 (Q16853 whole entry): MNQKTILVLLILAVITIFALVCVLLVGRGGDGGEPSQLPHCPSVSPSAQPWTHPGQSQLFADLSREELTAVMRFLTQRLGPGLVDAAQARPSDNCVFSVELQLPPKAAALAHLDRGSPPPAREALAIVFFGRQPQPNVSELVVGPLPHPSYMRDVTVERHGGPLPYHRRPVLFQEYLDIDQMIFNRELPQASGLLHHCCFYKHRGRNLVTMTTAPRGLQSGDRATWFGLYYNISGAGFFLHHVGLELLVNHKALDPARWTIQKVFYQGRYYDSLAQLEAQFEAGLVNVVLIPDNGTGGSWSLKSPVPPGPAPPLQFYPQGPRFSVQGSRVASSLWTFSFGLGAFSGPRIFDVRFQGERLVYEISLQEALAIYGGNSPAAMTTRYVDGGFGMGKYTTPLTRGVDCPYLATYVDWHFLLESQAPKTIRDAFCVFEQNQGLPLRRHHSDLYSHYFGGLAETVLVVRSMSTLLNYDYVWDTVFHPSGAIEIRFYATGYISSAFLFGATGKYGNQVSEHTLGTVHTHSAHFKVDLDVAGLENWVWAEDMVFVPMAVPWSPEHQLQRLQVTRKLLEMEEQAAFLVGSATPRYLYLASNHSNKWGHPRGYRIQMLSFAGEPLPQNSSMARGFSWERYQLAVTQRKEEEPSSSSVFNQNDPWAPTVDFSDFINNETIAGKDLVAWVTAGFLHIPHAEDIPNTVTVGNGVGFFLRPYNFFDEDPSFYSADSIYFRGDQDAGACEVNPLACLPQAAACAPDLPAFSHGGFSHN
# Description: The MAO-Glo™ Assay (commercial available from PROMEGA, # V1402) provides a sensitive method for the measurement of monoamine oxidase (MAO) activity (Valley, M. P. et al., 2006, Anal. Biochem. 359: 238-246) from a variety of tissues, biofluids or recombinant expressed or purified enzymes. As substrate a derivate of the beetle luciferin ((4S)-4,5-dihydro-2-(6-hydroxybenzothiazolyl)-4-thiazole-carboxylic acid) is used, which is oxidized at a primary amine moiety. After a spontaneous elimination and a catalyzed esterase reaction, the turnover of the luciferine by the luciferase is recorded as a signal of AOC3 activity.
# An aliquot of 3 μL of the compound dilution is added to a 384 well plate (Optiplate, PS, flat bottom, white, PERKIN ELMER, #6007290) with a final DMSO concentration of 6.6%. Recombinant CHO cells, overexpressing the human (1500 cells/well), mouse (1000 cells/well) or rat (500 cells/well) AOC3 enzyme are diluted in reaction buffer and added in a volume of 15 μL to the wells. After incubation for 20 minutes at 37° C., 2 μL of MAO substrate (dissolved in DMSO at 16 mM, adjusted to assay concentration in reaction buffer to a final assay concentration of 20 μM) is added and further incubated for 60 minutes at 37° C. The turnover of the substrate is determined by the addition of 20 μL of the detection-mix which was generated by the addition of reconstitution buffer with esterase (PROMEGA, # V1402) to the luciferine detection reagent (PROMEGA, # V1402). After an incubation period of 20 minutes, the luminescent signal is measured with Envision 2104 Multilabel Reader (PERKIN ELMER).
# In the following table the activity expressed as IC50 (nM) of compounds according to the invention is presented wherein the IC50 values are determined in the MAO-Glo™ AOC3 assay as described hereinbefore. The term “Example” refers to the example numbers according to the following experimental section.
# [2] = comparative compounds of EP 2 695 881
# [3] = Table 3, compounds of the present invention
# [4] = compounds of the present invention
# [5] = Table 2, compounds of the present invention, read-out: IC50
"Cl (biliary clearance) [1, 2] [%]",QH (hepatocytes; [3]) [%],QH (hepatocytes; Table 4) [%],"Cl (biliary clearance) [1, 4] [%]","IC50 (AOC3; Table 1, read-out: AOC3 IC50) [nM]",IC50 (AOC3; [5]) [nM],Compound
22.4,–,–,–,–,–,"CC(=O)N1CCC(COc2ncc(-c3cccc(COC(=O)NC(=N)N)c3F)cn2)CC1 [11 (221), reference compound]"
10.3,–,–,–,–,–,"CC(=O)N1CCC(C2CN(c3cccc(COC(=O)NC(=N)N)c3F)C2)CC1 [559 (293), reference compound]"
–,3.7,4,1.2,4,4.1,COc1ncc(N2CCN(c3nccc(COC(=O)NC(=N)N)c3F)CC2)cn1 [Example 1.072]
–,23,10,2.2,3,2.8,N=C(N)NC(=O)OCc1ccnc(N2CCN(c3ccc(C(N)=O)cc3)CC2)c1F [Example 1.084]

# — patent US10730850B2, “Pyridinylmethyl carbamimidoylcarbamate derivatives and their use as AOC3 inhibitors” (Boehringer Ingelheim International GmbH, priority 2016, dated 2020)
